Measurements published in publication doi:10.1101/2023.09.25.559386v1 (biorxiv, 2023).

Key:
[1] = target: T1, D1R (Homo sapiens, UniProt P21728); assay: BRET Gs heterotrimer dissociation; assay type: cell-based
[2] = target: T1, D1R; assay: radioligand competition binding, cell homogenates

T1 sequence (P21728 whole entry): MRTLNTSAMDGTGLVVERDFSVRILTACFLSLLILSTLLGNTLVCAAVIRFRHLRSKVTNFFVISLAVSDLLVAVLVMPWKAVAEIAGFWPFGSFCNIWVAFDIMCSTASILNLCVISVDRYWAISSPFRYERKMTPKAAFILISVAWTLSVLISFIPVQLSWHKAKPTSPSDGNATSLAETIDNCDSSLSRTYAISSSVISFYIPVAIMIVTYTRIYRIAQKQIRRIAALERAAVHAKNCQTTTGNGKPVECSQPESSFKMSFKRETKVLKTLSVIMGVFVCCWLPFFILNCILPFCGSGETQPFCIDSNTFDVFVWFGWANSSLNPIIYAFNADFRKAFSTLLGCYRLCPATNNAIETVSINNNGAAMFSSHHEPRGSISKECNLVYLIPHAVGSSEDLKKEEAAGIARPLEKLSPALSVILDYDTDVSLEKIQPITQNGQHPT

CN1CCc2cc(Cl)c(O)cc2C(c2ccc(NS(=O)(=O)CCCCC(=O)NCc3cn(CCOCCNC(=O)c4ccc(-c5c6ccc(N(C)C)cc6[o+]c6cc(N(C)C)ccc56)c(C(=O)[O-])c4)nn3)cc2)C1 (racemic) [compound 25, 2-(3,6-Bis(dimethylamino)xanthylium-9-yl)-5-((2-(2-(4-((5-(N-(4-(7-chloro-8-hydroxy-3-methyl-2,3,4,5-tetrahydro-1H-benzo[d]azepin-1-yl)phenyl)sulfamoyl)pentanamido)methyl)-1H-1,2,3-triazol-1-yl)ethoxy)ethyl)carbamoyl)benzoate]
Kb [1]: 51.3 nM
Ki [2]: 4.57 nM

COCC[N+]1=C(/C=C/C=C2N(CCCCCC(=O)NCCOCCOCCn3cc(CNC(=O)CCCCS(=O)(=O)Nc4ccc(C5CN(C)CCc6cc(Cl)c(O)cc65)cc4)nn3)c3ccc(S(=O)(=O)[O-])cc3C2(C)CCCS(=O)(=O)O)C(C)(CCCS(=O)(=O)O)c2cc(S(=O)(=O)O)ccc21 (stereo not shown) [compound 28, 2-((E)-3-((E)-1-(6-((2-(2-(2-(4-((5-(N-(4-(7-Chloro-8-hydroxy-3-methyl-2,3,4,5-tetrahydro-1H-benzo[d]azepin-1-yl)phenyl)sulfamoyl)pentanamido)methyl)-1H-1,2,3-triazol-1-yl)ethoxy)ethoxy)ethyl)amino)-6-oxohexyl)-3-methyl-5-sulfonato-3-(3-sulfonatopropyl)indolin-2-ylidene)prop-1-en-1-yl)-1-(2-methoxyethyl)-3-methyl-3-(3-sulfonatopropyl)-3H-indol-1-ium-5-sulfonate]
pKi ([2]; […] [3H]SCH-23390, […] min, room temperature): 6.85 ± 0.07

CN1CCc2cc(Cl)c(O)cc2C(c2ccc(NS(=O)(=O)CCCNC(=O)c3ccc(-c4c5ccc(N(C)C)cc5[o+]c5cc(N(C)C)ccc45)c(C(=O)[O-])c3)cc2)C1 (racemic) [compound 23, 5-((3-(N-(4-(7-Chloro-8-hydroxy-3-methyl-2,3,4,5-tetrahydro-1H-benzo[d]azepin-1-yl)phenyl)sulfamoyl)propyl)carbamoyl)-2-(6-(dimethylamino)-3-(dimethyliminio)-3H-xanthen-9-yl)benzoate]
Ki [2]: 398 nM

COCC[N+]1=C(/C=C/C=C2N(CCCCCC(=O)NCCOCCn3cc(CNC(=O)CCCCS(=O)(=O)Nc4ccc(C5CN(C)CCc6cc(Cl)c(O)cc65)cc4)nn3)c3ccc(S(=O)(=O)[O-])cc3C2(C)CCCS(=O)(=O)O)C(C)(CCCS(=O)(=O)O)c2cc(S(=O)(=O)O)ccc21 (stereo not shown) [compound 26, 2-((E)-3-((E)-1-(6-((2-(2-(4-((5-(N-(4-(7-Chloro-8-hydroxy-3-methyl-2,3,4,5-tetrahydro-1H-benzo[d]azepin-1-yl)phenyl)sulfamoyl)pentanamido)methyl)-1H-1,2,3-triazol-1-yl)ethoxy)ethyl)amino)-6-oxohexyl)-3-methyl-5-sulfonato-3-(3-sulfonatopropyl)indolin-2-ylidene)prop-1-en-1-yl)-1-(2-methoxyethyl)-3-methyl-3-(3-sulfonatopropyl)-3H-indol-1-ium-5-sulfonate]
Ki [2]: 288 nM

COCC[N+]1=C(/C=C/C=C2N(CCCCCC(=O)NCCCS(=O)(=O)Nc3ccc(C4CN(C)CCc5cc(Cl)c(O)cc54)cc3)c3ccc(S(=O)(=O)[O-])cc3C2(C)CCCS(=O)(=O)O)C(C)(CCCS(=O)(=O)O)c2cc(S(=O)(=O)O)ccc21 (stereo not shown) [compound 24, (E)-1-(6-((3-(N-(4-(7-Chloro-8-hydroxy-3-methyl-2,3,4,5-tetrahydro-1H-benzo[d]azepin-1-yl)phenyl)sulfamoyl)propyl)amino)-6-oxohexyl)-2-((E)-3-(1-(2-methoxyethyl)-3-methyl-5-sulfo-3-(3-sulfopropyl)-3H-indol-1-ium-2-yl)allylidene)-3-methyl-3-(3-sulfopropyl)indoline-5-sulfonate]
Ki [2]: 10.2 nM

CN1CCc2cc(Cl)c(O)cc2C(c2ccc(NS(=O)(=O)CCCCC(=O)NCc3cn(CCOCCOCCNC(=O)c4ccc(-c5c6ccc(N(C)C)cc6[o+]c6cc(N(C)C)ccc56)c(C(=O)[O-])c4)nn3)cc2)C1 (racemic) [compound 27, 2-(3,6-Bis(dimethylamino)xanthylium-9-yl)-5-((2-(2-(2-(4-((5-(N-(4-(7-chloro-8-hydroxy-3-methyl-2,3,4,5-tetrahydro-1H-benzo[d]azepin-1-yl)phenyl)sulfamoyl)pentanamido)methyl)-1H-1,2,3-triazol-1-yl)ethoxy)ethoxy)ethyl)carbamoyl)benzoate]
Ki [2]: 9.55 nM
